Measured values published in patent US5364772A, “DNA molecule encoding the β3 -adrenergic receptor” (Wayne State University, priority 1992, dated 1994).

How the values were obtained:
[1] = system: truncated (402 amino acids) human β3-adrenergic receptor; conditions: cited from earlier work; for inhibition at the truncated receptor: Emorine et al., 1989
[2] = molecular target: T1, full length (408 amino acids) human β3-adrenergic receptor (Homo sapiens, UniProt P13945); assay: Functional activity (adenylyl cyclase) at full-length human β3 receptor expressed in CHO cells; type: biochemical
T1 construct: CHO cells expressing the full length human β3 receptor are harvested; expressed in transfected cells
T1 sequence (P13945 whole entry): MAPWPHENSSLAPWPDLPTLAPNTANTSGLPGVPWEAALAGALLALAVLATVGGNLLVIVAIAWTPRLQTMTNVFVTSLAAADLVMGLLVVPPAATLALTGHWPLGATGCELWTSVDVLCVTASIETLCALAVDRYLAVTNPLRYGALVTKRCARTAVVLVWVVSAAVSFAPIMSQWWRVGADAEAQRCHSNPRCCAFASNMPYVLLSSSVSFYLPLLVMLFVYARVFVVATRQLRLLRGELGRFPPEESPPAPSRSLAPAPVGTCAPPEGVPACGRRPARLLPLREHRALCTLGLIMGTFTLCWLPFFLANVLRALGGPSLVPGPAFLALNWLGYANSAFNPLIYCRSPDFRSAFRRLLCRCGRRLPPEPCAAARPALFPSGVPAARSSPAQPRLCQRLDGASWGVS
Method: Culture medium was removed and cells were washed in phosphate-buffered saline and then harvested in 25 mM HEPES (pH 8.0) buffer containing 2 mM MgCl2 and 1 mM EDTA. Cell were homogenized and centrifuged at 48,000×g for 15 min. to obtain crude membranes. Membrane pellets were resuspended and used directly or frozen at -80° until used. […] Membranes (5-15 μg of protein) were preincubated at 4°, in a volume of 40 μl, with the specified drugs for 15 min. Adenylyl cyclase reactions were initiated by addition of substrate mixture and were terminated after 30 min at 30°. […] Concentration-response data were analyzed by nonlinear regression analysis with a one-site mass action equation for transfected CHO cells (Enzfitter, Elsevier Biosoft).
Chinese hamster ovary (CHO) cells are transfected with constructs based upon the expression vector pRc/CMV. […] Transfection of CHO cells with DNA constructs is accomplished by the CaPO4 -DNA precipitation method as described in Maniatis et al., ibid. To obtain cells that stably express these DNA constructs, transfected cells are selected based upon their resistance to G418, which is conferred by the neomycin-resistance gene contained in pRc/CMV. Cells that survive selective conditions (e.g. 800 μg/ml G418) are then cloned by limiting dilution.
CHO cells expressing the full length human β3 receptor are harvested and membranes prepared as described by Granneman et al., ibid. Adenylyl cyclase activity is then determined in response to various agents known or thought to interact with the β3 receptor, using the method of Salomon, ibid. Agonists are identified by the ability to increase cyclic AMP generation above basal levels. Antagonists are identified by their ability to decrease adenylyl cyclase activity that is stimulated by 100 nM isoproterenol.

[3] = system: adipose tissue-specific genes; conditions: Kletzien et al., 1992; cited from earlier work

## CC(Cc1ccc(OCC(=O)O)cc1)NCC(O)c1cccc(Cl)c1 (stereo not shown) [BRL 37344]
[1]
  agonist character: partial agonists
[2]; full length receptor
  agonist character: partial agonists
[2]; full-length receptor
  activation potency: relatively low potency

## CC1(COc2ccc(CC3SC(=O)NC3=O)cc2)CCCCC1 (stereo not shown) [Cigilazone]
[3]
  effect on expression of adipose tissue-specific genes: augment the expression of adipose tissue-specific genes

## CC(C)NCC(O)COc1cccc2ccccc12 (stereo not shown) [Propranolol]
[1]
  inhibition at the truncated receptor: essentially inactive

## C=CCc1ccccc1OCC(O)CNC(C)C (stereo not shown) [alprenolol]
[1]
  inhibition at the truncated receptor: essentially inactive
[2]; full length receptor
  potency of inhibition of the full length receptor (antagonists): submicromolar potencies
